One assay has as its target T1, human TLR8 (Homo sapiens, UniProt Q9NR97).
T1 construct: host or cells: HEK293 (HEK-Blue hTLR8)
T1 sequence (Q9NR97 27-1041): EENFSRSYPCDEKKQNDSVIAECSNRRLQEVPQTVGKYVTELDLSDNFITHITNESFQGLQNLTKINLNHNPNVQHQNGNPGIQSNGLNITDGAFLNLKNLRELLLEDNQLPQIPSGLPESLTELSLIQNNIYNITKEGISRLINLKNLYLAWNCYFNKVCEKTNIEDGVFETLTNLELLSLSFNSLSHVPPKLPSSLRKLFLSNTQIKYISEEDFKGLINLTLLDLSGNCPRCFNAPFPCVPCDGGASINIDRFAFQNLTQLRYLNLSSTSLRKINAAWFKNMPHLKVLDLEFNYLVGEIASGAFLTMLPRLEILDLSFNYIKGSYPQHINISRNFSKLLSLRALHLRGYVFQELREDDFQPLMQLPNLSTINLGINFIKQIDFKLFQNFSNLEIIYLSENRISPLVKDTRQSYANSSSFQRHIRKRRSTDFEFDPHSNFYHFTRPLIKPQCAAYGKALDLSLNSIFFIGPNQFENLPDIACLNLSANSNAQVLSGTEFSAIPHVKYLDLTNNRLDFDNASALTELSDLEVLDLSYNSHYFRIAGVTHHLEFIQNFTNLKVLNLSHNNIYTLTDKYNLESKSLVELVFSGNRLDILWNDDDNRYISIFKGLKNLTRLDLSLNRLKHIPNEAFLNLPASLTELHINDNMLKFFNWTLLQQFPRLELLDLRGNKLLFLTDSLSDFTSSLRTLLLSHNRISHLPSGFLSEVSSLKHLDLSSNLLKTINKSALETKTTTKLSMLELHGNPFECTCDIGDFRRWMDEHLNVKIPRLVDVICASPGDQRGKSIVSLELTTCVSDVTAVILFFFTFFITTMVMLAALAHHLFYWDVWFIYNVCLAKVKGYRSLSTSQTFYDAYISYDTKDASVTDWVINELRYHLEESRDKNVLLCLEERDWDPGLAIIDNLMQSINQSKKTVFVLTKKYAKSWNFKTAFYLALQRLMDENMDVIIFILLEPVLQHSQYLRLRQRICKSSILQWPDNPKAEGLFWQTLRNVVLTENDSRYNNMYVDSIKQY
Put plainly: HEK-Blue hTLR8 reporter cell assay (SEAP, NF-kB/AP-1) for stimulation of human TLR8. Type of assay: cell-based. To be noted: HEK-Blue hTLR8 cells; for EC50: 24 h incubation, SEAP readout, read-out: TLR8_EC50; for activation at 20 µM: 24 h, at 20000 nM. An outline of the steps:
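HEK293 cells carrying hTLR8 and a SEAP reporter driven by NF-κB/AP-1 sites were seeded at 3.10E4 cells/well and held 18 to 24 h at 37° C., 5% CO2 before compound addition. Supernatant SEAP measured with QUANTI-Blue™.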

Another assay concerns the target T2, human TLR7 (Homo sapiens, UniProt Q9NYK1).
T2 construct: host or cells: HEK293 (HEK-Blue hTLR7)
T2 sequence (Q9NYK1 27-1049): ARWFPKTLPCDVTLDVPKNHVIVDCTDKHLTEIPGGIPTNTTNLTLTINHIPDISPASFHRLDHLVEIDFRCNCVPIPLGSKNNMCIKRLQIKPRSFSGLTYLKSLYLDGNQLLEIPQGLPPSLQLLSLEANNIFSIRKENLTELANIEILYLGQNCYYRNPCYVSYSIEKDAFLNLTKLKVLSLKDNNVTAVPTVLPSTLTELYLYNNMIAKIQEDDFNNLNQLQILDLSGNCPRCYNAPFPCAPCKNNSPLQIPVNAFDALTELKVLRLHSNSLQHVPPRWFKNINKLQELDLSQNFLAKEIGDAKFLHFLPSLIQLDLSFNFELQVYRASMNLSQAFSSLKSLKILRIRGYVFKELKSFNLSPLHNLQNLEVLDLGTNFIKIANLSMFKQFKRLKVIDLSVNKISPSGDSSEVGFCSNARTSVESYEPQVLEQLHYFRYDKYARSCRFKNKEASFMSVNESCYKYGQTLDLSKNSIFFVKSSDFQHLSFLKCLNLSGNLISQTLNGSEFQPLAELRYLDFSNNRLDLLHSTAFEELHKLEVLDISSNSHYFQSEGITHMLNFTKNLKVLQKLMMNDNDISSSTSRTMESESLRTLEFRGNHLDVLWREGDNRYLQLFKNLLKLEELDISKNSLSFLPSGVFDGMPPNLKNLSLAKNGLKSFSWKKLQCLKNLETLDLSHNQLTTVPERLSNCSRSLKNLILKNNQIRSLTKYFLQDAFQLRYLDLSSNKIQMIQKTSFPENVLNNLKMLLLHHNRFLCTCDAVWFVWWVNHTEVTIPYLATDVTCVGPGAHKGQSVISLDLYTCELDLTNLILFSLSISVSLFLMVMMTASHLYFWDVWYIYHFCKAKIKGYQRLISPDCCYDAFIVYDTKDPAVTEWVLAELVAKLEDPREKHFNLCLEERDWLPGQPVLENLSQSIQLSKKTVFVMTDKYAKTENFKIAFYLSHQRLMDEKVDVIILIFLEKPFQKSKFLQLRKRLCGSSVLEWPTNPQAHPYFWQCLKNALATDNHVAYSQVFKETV
Put plainly: HEK-Blue hTLR7 reporter cell assay (SEAP, NF-kB/AP-1) for stimulation of human TLR7. Type of assay: cell-based. To be noted: HEK-Blue hTLR7 cells; for EC50: 24 h incubation, SEAP readout, read-out: TLR7_EC50; for activation at 20 µM: 24 h, at 20000 nM. An outline of the steps:
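HEK293 cells expressing hTLR7 with NF-κB/AP-1-driven SEAP reporter, seeded 3.10E4 cells/well, pre-incubated 18–24 h, then exposed to 3-fold compound dilutions (0.01–20 μM) for 24 h at 37 °C. Supernatant SEAP read with QUANTI-Blue; EC50 as concentration giving 50% activation.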

The structures appear in SMILES notation. Structures can show the parent of a compound that is named as a salt.

Consider `CCCCc1nc2c(N)nnc(OC(C)C)c2n1Cc1ccc(CNC(=O)CCOCCOC)cc1` [Compound 31, N-(4-((4-amino-2-butyl-7-isopropoxy-1H-imidazo[4,5-d]pyridazin-1-yl)methyl)benzyl)-3-(2-methoxyethoxy)propanamide], for which the EC50 at human TLR8 was more than 20000 nM; at human TLR7 it was 326 nM.

On to `CCCCc1nc2c(N)nnc(-c3cc[nH]c3)c2n1Cc1ccc(CN)cc1` [Compound 135, 1-(4-(aminomethyl)benzyl)-2-butyl-7-(1H-pyrrol-3-yl)-1H-imidazo[4,5-d]pyridazin-4-amine 2,2,2-trifluoroacetate], for which the EC50 on human TLR8 worked out at 252 nM; on human TLR7, 136 nM.

As for `CCCCc1nc2c(N)nnc(OC(C)C)c2n1C[C@H]1CCC[C@H](N)C1` (racemic) [Compound 32, 1-(((1S,3S)-3-aminocyclohexyl)methyl)-2-butyl-7-isopropoxy-1H-imidazo[4,5-]pyridazin-4-amine], the EC50 at human TLR8 stood at 709 nM; at human TLR7, 598 nM.

`CCCCc1nc2c(N)nnc(-c3ccsc3)c2n1Cc1ccc(OC)cc1` [Compound 62, 2-butyl-1-(4-methoxybenzyl)-7-(thiophen-3-yl)-1H-imidazo[4,5-d]pyridazin-4-amine]: the figures for the EC50 at human TLR8 and at human TLR7 were more than 20000 nM and 771 nM, respectively.

For `CCCCc1nc2c(N)nnc(CC(C)C)c2n1Cc1ccc(OC)cc1` [Compound 61, 2-butyl-7-isobutyl-1-(4-methoxybenzyl)-1H-imidazo[4,5-d]pyridazin-4-amine], the EC50 was more than 20000 nM on human TLR8 and 1180 nM at human TLR7.

With `CCCCc1nc2c(N)nnc(CCC(C)C)c2n1Cc1ccc(CN)cc1` [Compound 133, 1-(4-(aminomethyl)benzyl)-2-butyl-7-isopentyl-1H-imidazo[4,5-d]pyridazin-4-amine], the results for the EC50 at human TLR8 and on human TLR7 were more than 19000 nM and 146 nM, respectively.

`CCCCc1nc2c(N)nnc(OC(C)C)c2n1Cc1ccc(CNCCOCCOCCOCCOCCOCCOCCOCCOC)cc1` [Compound 122, 2-butyl-4-isopropoxy-3-[[4-[[2-[2-[2-[2-[2-[2-[2-(2-methoxyethoxy)ethoxy]ethoxy]ethoxy]ethoxy]ethoxy]ethoxy]ethylamino]methyl]phenyl]methyl]imidazo[4,5-d]pyridazin-7-amine di2,2,2-trifluoroacetate]: the EC50 on human TLR8 is more than 20000 nM; on human TLR7, 729 nM.

As to `CCCCc1nc2c(N)nnc(OC(C)C)c2n1Cc1ccc(CNCC(=O)OC(C)(C)C)cc1` [Compound 117, tert-butyl (4-((4-amino-2-butyl-7-isopropoxy-1H-imidazo[4,5-d]pyridazin-1-yl)methyl)benzyl)glycinate], the figures for the EC50 on human TLR8 and on human TLR7 were 8880 nM and 190 nM, respectively.

As to `CCCCc1nc2c(N)nnc(OC(C)C)c2n1Cc1ccc(CNC2CC2)cc1` [Compound 36, 2-butyl-1-(4-((cyclopropylamino)methyl)benzyl)-7-isopropoxy-1H-imidazo[4,5-d]pyridazin-4-amine], the EC50 is 448 nM on human TLR8 and 19 nM on human TLR7.

Consider `CCCCc1nc2c(N)nnc(OC(C)C)c2n1Cc1ccc(CNCCC(=O)OC(C)(C)C)cc1` [Compound 119, tert-butyl 3-((4-((4-amino-2-butyl-7-isopropoxy-1H-imidazo[4,5-d]pyridazin-1-yl)methyl)benzyl)amino)propanoate], for which the results for the EC50 at human TLR8 and at human TLR7 were 2130 nM and 143 nM, respectively.

For `CCCCc1nc2c(N)nnc(OC(C)C)c2n1CCCCCCN` [Compound 146, 3-(6-aminohexyl)-2-butyl-4-isopropoxy-imidazo[4,5-d]pyridazin-7-amine dihydrochloride salt], the EC50 on human TLR8 was more than 20000 nM; on human TLR7 it was 191 nM.

On to `CCCCc1nc2c(N)nnc(OC(C)C)c2n1CCCCCCNC1CCOCC1` [Compound 147, 2-butyl-4-isopropoxy-3-[6-(tetrahydropyran-4-ylamino)hexyl]imidazo[4,5-d]pyridazin-7-amine; dihydrochloride], for which the values for the EC50 on human TLR8 and on human TLR7 were 7720 nM and 20.4 nM, respectively.

For the compound `CCCCc1nc2c(N)nnc(OC(C)C)c2n1Cc1ccc(CNCCOCCOCCOCCOCCOCCOCCOCCOCCOCCOCCOCCOC)cc1` [Compound 123, 2-butyl-4-isopropoxy-3-[[4-[[2-[2-[2-[2-[2-[2-[2-[2-[2-[2-[2-(2-methoxyethoxy)ethoxy]ethoxy]ethoxy]ethoxy]ethoxy]ethoxy]ethoxy]ethoxy]ethoxy]ethoxy]ethylamino]methyl]phenyl]methyl]imidazo[4,5-d]pyridazin-7-amine di2,2,2-trifluoroacetate], the activation at 20 µM on human TLR8 came out at 10.2%; on human TLR7 it was 13.5%.

As to `CCCCCCCCCCC(=O)NCc1ccc(Cn2c(CCCC)nc3c(N)nnc(OC(C)C)c32)cc1` [Compound 29, N-(4-((4-amino-2-butyl-7-isopropoxy-1H-imidazo[4,5-d]pyridazin-1-yl)methyl)benzyl)undecanamide], the results for the EC50 at human TLR8 and on human TLR7 were more than 20000 nM and 117 nM, respectively.

Regarding `CCCCc1nc2c(N)nnc(/C=C/C(C)C)c2n1Cc1ccc(CN)cc1` [Compound 132, (E)-1-(4-(aminomethyl)benzyl)-2-butyl-7-(3-methylbut-1-en-1-yl)-1H-imidazo[4,5-d]pyridazin-4-amine], the EC50 at human TLR8 is more than 18500 nM; at human TLR7, 296 nM.

Turning to `CCCCc1nc2c(N)nnc(C3=CCCCC3)c2n1Cc1ccc(OC)cc1` [Compound 66, 2-butyl-7-(cyclohex-1-en-1-yl)-1-(4-methoxybenzyl)-1H-imidazo[4,5-d]pyridazin-4-amine], the EC50 on human TLR8 was more than 20000 nM; on human TLR7, 2880 nM.

For `CCCCc1nc2c(N)nncc2n1Cc1ccc(OC)cc1` [Compound 95, 2-butyl-1-(4-methoxybenzyl)-1H-imidazo[4,5-d]pyridazin-4-amine], the values for the activation at 20 µM at human TLR8 and on human TLR7 were 20.5% and 15%, respectively.

Regarding `CCCCc1nc2c(N)nnc(O)c2n1Cc1ccc(OC)cc1` [Compound 93, 4-amino-2-butyl-1-(4-methoxybenzyl)-1H-imidazo[4,5-d]pyridazin-7-ol], the activation at 20 µM at human TLR8 was determined as 17%. Besides, the EC50 at human TLR7 is more than 20000 nM.

Turning to `CCCCc1nc2c(N)nnc(SC(C)C)c2[nH]1` [Compound 99, 2-butyl-7-(isopropylthio)-1H-imidazo[4,5-d]pyridazin-4-amine], on human TLR8, the activation at 20 µM stood at 18%. In addition, the EC50 on human TLR7 was found to be 13600 nM.

These data come from patent US12583861B2, “Derivatives of imidazo[4,5-d]pyridazine, their preparation and their therapeutic application” (SANOFI, priority 2021, dated 2026).
